Data set [1] concerns WT mouse bone marrow (BM) cells (OC precursors). Description: Osteoclastogenesis assay: OC formation on plastic, TRAP staining. Format: cell-based. Conditions: for Inhibition of osteoclast activity by osteoclast staining: WT mouse BM cells, images FIGS. 11-12.
The conditions of data set [2]: literature; cited from earlier work.
The test system of the next data set is bone resorption. As to conditions: cited from earlier work; for Prevention of bone resorption in mice: literature report.
Another data set relates to TRAF3. Description: Western blot of RANKL-induced TRAF3 degradation. The data set is classed as cell-based, mouse. As to conditions: 3 μM, 8 hrs, Western blotting. The procedure: WT mouse BM cells, cultured with M-CSF as in FIG. 6, were treated with vehicle, BTCQ, CQ or NC-BTCQ (3 μM) for 8 hrs. Cell lysates were used to test TRAF3 and actin protein levels by Western blotting.
Cultured cells were lysed with M-Per mammalian protein extraction reagent. 10-20 μg protein were loaded onto 10% SDS-PAGE gels, transferred onto polyvinylidene difluoride membranes, incubated with primary and secondary Abs, followed by exposure to ECL substrate. Signals were analyzed using a Bio-Rad imaging system.
Background: Immunoblotting shows a protein as a band on a membrane.

Each structure is given as a SMILES string.

On to `CCN(CC)CCCC(C)N(C(=O)OCCCCCCCC(=O)NC(P(=O)(O)O)P(=O)(O)O)c1ccnc2cc(Cl)ccc12` (racemic) [UR-11, rac-(13-(7-chloroquinolin-4-yl)-18-ethyl-14-methyl-3,12-dioxo-11-oxa-2,13,18-triazaicosane-1,1-diyl)diphosphonic acid], for which, in data set [1], the “Inhibition of osteoclast activity by osteoclast staining” value (“Inhibition of osteoclast activity” for short) was “more effective at inhibiting osteoclast activity than the non cleavable amide UR-12”.

In the case of `CCN(CCO)CCCC(C)Nc1ccnc2cc(Cl)ccc12` (stereo not shown) [HCQ, hydroxychloroquine], the “Inhibition of osteoclast activity” value in data set [1] is “CQ and BTCQ are more effective at inhibiting osteoclast activity than HCQ”. Moreover, the “Blindness, share of patients” value in data set [2] is on record as 0.5-1%. The “Prevention of bone resorption in mice” value in the data set with bone resorption is on record as “does not prevent bone resorption in mice”.

As to `CCN(CC)CCCC(C)Nc1ccnc2cc(Cl)ccc12.O=P(O)(O)O.O=P(O)(O)O` (stereo not shown) [CQ, 7-chloro-4-[[4-(diethylamino)-1-methylbutyl]amino] quinoline phosphate (1:2)], the “OC formation (OC numbers after TRAP staining)” value in data set [1] (BM cells on plastic, M-CSF 2 days, then RANKL plus compound 3 more days) is recorded as “inhibited OC formation”. Besides, the “Inhibition of osteoclast activity” value in data set [1] is reported as “more effective at inhibiting osteoclast activity than HCQ”. For the same molecule, in data set [1] (on plastic, FIG. 2A), the “Concentration at which OC formation was inhibited (BTCQ more effective than CQ)” value worked out at 3 µM. Also, the “Dose that effectively blocks PTH-induced marrow fibrosis” value with bone resorption (Xiu Y et al., 2014) was 50 mg/kg. Also, in the data set with bone resorption, the “Prevention of bone resorption in mice” value was “prevents bone resorption and osteoporosis”. The “Prevention of RANKL-induced degradation of TRAF3” value with TRAF3 was “unlike CQ and BTCQ, NC-BTCQ does not prevent RANKL-induced degradation of TRAF3”.

These data come from patent US10660884B2, “Phosphonate-chloroquine conjugates and methods using same” (University of Rochester, priority 2015, dated 2020).
